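Exposure lasted 48 hours, with cells grown in 96-well plates and compounds tested at five concentrations. GI50 = concentration required for 50% inhibition of growth. Definition used: TGI = concentration required for complete inhibition of growth.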
Columns and labels:
Assay in all cases: NCI-60 cell line screen, 48 h
786-0 renal = tested on: 786-0 renal
A498 renal = tested on: A498 renal
A549 NSCLC = tested on: A549 NSCLC
ACHN renal = tested on: ACHN renal
BT-549 breast = tested on: BT-549 breast
CAKI-1 renal = tested on: CAKI-1 renal
CCRF-CEM leukemia = tested on: CCRF-CEM leukemia
COLO 205 colon = tested on: COLO 205 colon
DU-145 prostate = tested on: DU-145 prostate
HCC-2998 colon = tested on: HCC-2998 colon
HCT-116 colon = tested on: HCT-116 colon
HCT-15 colon = tested on: HCT-15 colon
HL-60(TB) leukemia = tested on: HL-60(TB) leukemia
HOP-62 NSCLC = tested on: HOP-62 NSCLC
HOP-92 NSCLC = tested on: HOP-92 NSCLC
HS 578T breast = tested on: HS 578T breast
HT29 colon = tested on: HT29 colon
IGROV1 ovarian = tested on: IGROV1 ovarian
K-562 leukemia = tested on: K-562 leukemia
KM12 colon = tested on: KM12 colon
LOX IMVI melanoma = tested on: LOX IMVI melanoma
M14 melanoma = tested on: M14 melanoma
MALME-3M melanoma = tested on: MALME-3M melanoma
MCF7 breast = tested on: MCF7 breast
MDA-MB-231 breast = tested on: MDA-MB-231 breast
MDA-MB-435 = tested on: MDA-MB-435
MOLT-4 leukemia = tested on: MOLT-4 leukemia
NCI-H226 lung = tested on: NCI-H226 lung
NCI-H23 lung = tested on: NCI-H23 lung
NCI-H460 lung = tested on: NCI-H460 lung
NCI-H522 lung = tested on: NCI-H522 lung
NCI/ADR-RES ovarian = tested on: NCI/ADR-RES ovarian
OVCAR-3 ovarian = tested on: OVCAR-3 ovarian
OVCAR-4 ovarian = tested on: OVCAR-4 ovarian
OVCAR-5 ovarian = tested on: OVCAR-5 ovarian
OVCAR-8 ovarian = tested on: OVCAR-8 ovarian
PC-3 prostate = tested on: PC-3 prostate
RPMI-8226 leukemia = tested on: RPMI-8226 leukemia
RXF 393 renal = tested on: RXF 393 renal
SF-268 CNS = tested on: SF-268 CNS
SF-295 CNS = tested on: SF-295 CNS
SF-539 CNS = tested on: SF-539 CNS
SK-MEL-2 melanoma = tested on: SK-MEL-2 melanoma
SK-MEL-28 melanoma = tested on: SK-MEL-28 melanoma
SK-MEL-5 melanoma = tested on: SK-MEL-5 melanoma
SK-OV-3 ovarian = tested on: SK-OV-3 ovarian
SN12C renal = tested on: SN12C renal
SNB-19 CNS = tested on: SNB-19 CNS
SNB-75 CNS = tested on: SNB-75 CNS
SR leukemia = tested on: SR leukemia
SW-620 colon = tested on: SW-620 colon
T-47D breast = tested on: T-47D breast
TK-10 renal = tested on: TK-10 renal
U251 CNS = tested on: U251 CNS
UACC-257 melanoma = tested on: UACC-257 melanoma
UACC-62 melanoma = tested on: UACC-62 melanoma
UO-31 renal = tested on: UO-31 renal

For Cn1c(=O)c(Cc2ccccc2F)cc2cnc(NC3CCOCC3)nc21, the GI50 (786-0 renal) was greater than 25 µM, the TGI (786-0 renal) was greater than 25 µM and the GI50 (A498 renal) was greater than 25 µM. The TGI (A498 renal) was greater than 25 µM, the GI50 (A549 NSCLC) was greater than 25 µM and the TGI (A549 NSCLC) was greater than 25 µM. For the same compound, the GI50 (ACHN renal) was greater than 25 µM, the TGI (ACHN renal) was greater than 25 µM and the GI50 (BT-549 breast) was greater than 25 µM. It also gave a TGI (BT-549 breast) greater than 25 µM, a GI50 (CAKI-1 renal) greater than 25 µM and a TGI (CAKI-1 renal) greater than 25 µM. It also gave a GI50 (CCRF-CEM leukemia) greater than 25 µM, a TGI (CCRF-CEM leukemia) greater than 25 µM and a GI50 (COLO 205 colon) greater than 25 µM. For the same compound, the TGI (COLO 205 colon) was greater than 25 µM, the GI50 (DU-145 prostate) was greater than 25 µM and the TGI (DU-145 prostate) was greater than 25 µM. It also gave a GI50 (HCC-2998 colon) greater than 25 µM, a TGI (HCC-2998 colon) greater than 25 µM and a GI50 (HCT-116 colon) greater than 25 µM. It also gave a TGI (HCT-116 colon) greater than 25 µM, a GI50 (HCT-15 colon) greater than 25 µM and a TGI (HCT-15 colon) greater than 25 µM. The GI50 (HL-60(TB) leukemia) was greater than 25 µM, the TGI (HL-60(TB) leukemia) was greater than 25 µM and the GI50 (HOP-62 NSCLC) was greater than 25 µM. For the same compound, the TGI (HOP-62 NSCLC) was greater than 25 µM, the GI50 (HOP-92 NSCLC) was 4.91 µM and the TGI (HOP-92 NSCLC) was greater than 25 µM. The GI50 (HS 578T breast) was greater than 25 µM, the TGI (HS 578T breast) was greater than 25 µM and the GI50 (HT29 colon) was greater than 25 µM. For the same compound, the TGI (HT29 colon) was greater than 25 µM, the GI50 (IGROV1 ovarian) was greater than 25 µM and the TGI (IGROV1 ovarian) was greater than 25 µM. For the same compound, the GI50 (K-562 leukemia) was greater than 25 µM, the TGI (K-562 leukemia) was greater than 25 µM and the GI50 (KM12 colon) was greater than 25 µM. It also gave a TGI (KM12 colon) greater than 25 µM, a GI50 (LOX IMVI melanoma) greater than 25 µM and a TGI (LOX IMVI melanoma) greater than 25 µM. The GI50 (M14 melanoma) was greater than 25 µM, the TGI (M14 melanoma) was greater than 25 µM and the GI50 (MALME-3M melanoma) was greater than 25 µM. The TGI (MALME-3M melanoma) was greater than 25 µM, the GI50 (MCF7 breast) was greater than 25 µM and the TGI (MCF7 breast) was greater than 25 µM. The GI50 (MDA-MB-231 breast) was greater than 25 µM, the TGI (MDA-MB-231 breast) was greater than 25 µM and the GI50 (MDA-MB-435) was greater than 25 µM. For the same compound, the TGI (MDA-MB-435) was greater than 25 µM, the GI50 (MOLT-4 leukemia) was greater than 25 µM and the TGI (MOLT-4 leukemia) was greater than 25 µM. It also gave a GI50 (NCI-H226 lung) greater than 25 µM, a TGI (NCI-H226 lung) greater than 25 µM and a GI50 (NCI-H23 lung) greater than 25 µM. For the same compound, the TGI (NCI-H23 lung) was greater than 25 µM, the GI50 (NCI-H460 lung) was greater than 25 µM and the TGI (NCI-H460 lung) was greater than 25 µM. The GI50 (NCI-H522 lung) was greater than 25 µM, the TGI (NCI-H522 lung) was greater than 25 µM and the GI50 (NCI/ADR-RES ovarian) was greater than 25 µM. For the same compound, the TGI (NCI/ADR-RES ovarian) was greater than 25 µM, the GI50 (OVCAR-3 ovarian) was greater than 25 µM and the TGI (OVCAR-3 ovarian) was greater than 25 µM. For the same compound, the GI50 (OVCAR-4 ovarian) was greater than 25 µM, the TGI (OVCAR-4 ovarian) was greater than 25 µM and the GI50 (OVCAR-5 ovarian) was greater than 25 µM. It also gave a TGI (OVCAR-5 ovarian) greater than 25 µM, a GI50 (OVCAR-8 ovarian) greater than 25 µM and a TGI (OVCAR-8 ovarian) greater than 25 µM. The GI50 (PC-3 prostate) was greater than 25 µM, the TGI (PC-3 prostate) was greater than 25 µM and the GI50 (RPMI-8226 leukemia) was greater than 25 µM. The TGI (RPMI-8226 leukemia) was greater than 25 µM, the GI50 (RXF 393 renal) was greater than 18.4 µM and the TGI (RXF 393 renal) was greater than 25 µM. The GI50 (SF-268 CNS) was greater than 25 µM, the TGI (SF-268 CNS) was greater than 25 µM and the GI50 (SF-295 CNS) was greater than 25 µM. For the same compound, the TGI (SF-295 CNS) was greater than 25 µM, the GI50 (SF-539 CNS) was greater than 25 µM and the TGI (SF-539 CNS) was greater than 25 µM. The GI50 (SK-MEL-2 melanoma) was greater than 25 µM, the TGI (SK-MEL-2 melanoma) was greater than 25 µM and the GI50 (SK-MEL-28 melanoma) was greater than 25 µM. The TGI (SK-MEL-28 melanoma) was greater than 25 µM, the GI50 (SK-MEL-5 melanoma) was greater than 25 µM and the TGI (SK-MEL-5 melanoma) was greater than 25 µM. It also gave a GI50 (SK-OV-3 ovarian) greater than 25 µM, a TGI (SK-OV-3 ovarian) greater than 25 µM and a GI50 (SN12C renal) greater than 25 µM. The TGI (SN12C renal) was greater than 25 µM, the GI50 (SNB-19 CNS) was greater than 25 µM and the TGI (SNB-19 CNS) was greater than 25 µM. For the same compound, the GI50 (SNB-75 CNS) was greater than 8.48 µM, the TGI (SNB-75 CNS) was greater than 25 µM and the GI50 (SR leukemia) was greater than 25 µM. It also gave a TGI (SR leukemia) greater than 25 µM, a GI50 (SW-620 colon) greater than 25 µM and a TGI (SW-620 colon) greater than 25 µM. For the same compound, the GI50 (T-47D breast) was greater than 25 µM, the TGI (T-47D breast) was greater than 25 µM and the GI50 (TK-10 renal) was greater than 25 µM. The TGI (TK-10 renal) was greater than 25 µM, the GI50 (U251 CNS) was greater than 25 µM and the TGI (U251 CNS) was greater than 25 µM. It also gave a GI50 (UACC-257 melanoma) greater than 25 µM, a TGI (UACC-257 melanoma) greater than 25 µM and a GI50 (UACC-62 melanoma) greater than 25 µM. For the same compound, the TGI (UACC-62 melanoma) was greater than 25 µM, the GI50 (UO-31 renal) was greater than 20.4 µM and the TGI (UO-31 renal) was greater than 25 µM.
